Measurements reported in patent US11248024B2, “Noxa-derived, cell death-inducing peptide eMTD” (INDUSTRY-ACADEMIC COOPERATION FOUNDATION, CHOSUN UNIVERSITY, priority 2019, dated 2022).
Ends that are not written are not given here. FAM = fluorescein

Columns and labels:
[1] = system: HeLa cells; experiment: Time-lapse confocal microscopy of peptide entry, Mito-DsRed2 transfected cells; format: cell-based, human; conditions: images every five seconds for 10 min
Experimental: In order to investigate the temporal order and cause relation between the introduction of eMTDΔ4 (SEQ ID NO: 2) and the damage of mitochondrial membrane and cell membrane, mitochondria were visualized by transfecting Mito-DsRed2 into HeLa cells one day before the experiment. Thereafter, eMTDΔ4 (SEQ ID NO: 2)-FAM was applied to the HeLa cells images of which were then taken every five seconds for 10 min under a confocal microscope.

[2] = system: HeLa cells; experiment: Intracellular localization of FAM-labelled peptide, confocal images (TOM20, DAPI); format: cell-based, human; conditions: 5 and 10 min incubation, fixed
Experimental: In order to investigate the source that allowed the intracellular calcium influx observed in Example 4, examination was made of the site at which the peptide eMTDΔ4 (SEQ ID NO: 2) acts. In this regard, the fluorescent tracer fluorescein was labeled to the C-terminal of the peptide eMTDΔ4 (SEQ ID NO: 2) (eMTDΔ4 (SEQ ID NO: 2)-FAM). Then, HeLa cells grown on Lab-Tek chamber glass were incubated with eMTDΔ4 (SEQ ID NO: 2)-FAM for 5 and 10 min before fixation with 1% paraformaldehyde.
Mitochondria were visualized using an antibody to TOM20, which localizes to the outer membrane of the mitochondrion because MTD (SEQ ID NO: 3) is known to migrate to mitochondria, while nuclei were visualized using DAPI.

[3] = system: HeLa; experiment: MTS assay, relative cell viability, HeLa; format: cell-based, human; conditions: for Viability (%): one hour treatment, Table 3
Experimental: Individual cell lines (HeLa, CT26, and B16F10) were purchased from the Korean Cell Line Bank. Dulbecco's modified Eagle's medium (DMEM), trypsin-EDTA, fetal bovine serum (FBS), and Hank's balanced salt solution (HBSS) were products from Gibco (Thermo Fisher).
Each of the cell lines was cultured in DMEM supplemented with 10% FBS in an incubator maintained at 37° C. and 5% 002.
For use in assaying the peptides eMTD (SEQ ID NO: 1) and eMTDΔ4 (SEQ ID NO: 2) synthesized in Example 1 for activity of inducing cell death, the cell line HeLa was grown to about 90% confluency in 96-well plates. The cells were washed once with HBSS buffer before treatment with the peptides of the present disclosure eMTD (SEQ ID NO: 1) and eMTDΔ4 (SEQ ID NO: 2) at concentrations of 0, 20, and 40 for one hour. Thereafter, the cells were incubated with an MTS assay agent (Promega) for one hour, followed by reading absorbance to calculate relative viability of cells.
Examination was made to see whether the peptide has the activity of inducing cell death in other cancer cell lines. In this regard, the cancer cell lines HeLa, CT26, and B16F10 were treated with eMTDΔ4 (SEQ ID NO: 2) at concentrations of 0, 20, and 40 μM.

[4] = system: mitochondria isolated from livers of BalB/C mice; experiment: Mitochondrial swelling, absorbance at 540 nm / TEM; format: biochemical; conditions: peptides 25 μM, Ca2+ 200 μM, CsA 20 μM
Experimental: First, livers excised from 6-week-old BalB/C mice were immersed in buffer (250 mM mannitol, […], 5 mM HEPES, pH 7.4, 0.1 mM PMSF and 4 rotenone) and completely homogenized using a Teflon Potter-Elvehjem grinder (Sigma). The ground liver was centrifuged at 1000×g for 10 min at 4° C. and the supernatants were centrifuged at 10,000×g for 10 min at 4° C. The pellets thus obtained were suspended in a regeneration buffer (250 mM sucrose, 10 mM HEPES, pH 7.4, 5 mM sodium succinate, 2 mM potassium phosphate, 0.1 mM PMSF, 25 μM EGTA, and 4 rotenone).
The mitochondria thus obtained were treated with 25 μM of eMTD (SEQ ID NO: 1) or eMTDΔ4 (SEQ ID NO: 2), followed by reading absorbance at 540 nm to determine mitochondrial swelling.

[5] = Two-step assay, damage on lipid membrane of liposomes (TbCl3/DPA fluorescence); format: biochemical; conditions: for Relative Fluorescence Intensity: liposomes, excitation 276 nm, read at 490 nm
Experimental: In brief, DOPS, DOPE, and DOPC (Avanti Polar Lipids) were dissolved at the ratio of 2:4:3 in chloroform, followed by vaporization. The residue was again dissolved at the concentration of 2 mg/mL in TbCl3 buffer (15 mM TbCl3, 50 mM sodium citrate, 20 mM HEPES, 150 mM NaCl, pH 7.4). The lipid mixture was extruded by Mini extruder (Avanti Polar Lipids) with a 400 nm to prepare liposomes which were washed with washing buffer (150 mM NaCl, 20 mM HEPES, pH 7.4) and then resuspended in an assay buffer (50 DPA, […], 20 mM HEPES, pH 7.4). The suspension was plated into 96-well plates and treated with 0, 10, or 25 μM of eMTD (SEQ ID NO: 1) or eMTDΔ4 (SEQ ID NO: 2). After stimulation with 276 nm laser, fluorescence was read at 490 nm.

Compound	entry of peptide into cells [1]	intracellular localization [2]	mitochondrial morphology [2]	Viability (%) ([3]; 20 μM)	Viability (%) ([3]; 40 μM)	Mitochondrial swelling, relative absorbance at 540 nm ([4]; Minute 0)	Mitochondrial swelling, relative absorbance at 540 nm ([4]; Minute 10)	Mitochondrial swelling, relative absorbance at 540 nm ([4]; Minute 20)	Mitochondrial swelling, relative absorbance at 540 nm ([4]; Minute 30)	Mitochondrial swelling, relative absorbance at 540 nm ([4]; Minute 40)	Mitochondrial swelling, relative absorbance at 540 nm ([4]; Minute 50)	Mitochondrial swelling, relative absorbance at 540 nm ([4]; Minute 60)	cell death activity (in words) ([3]; FIG. 1 and Table 3)	liposome lipid membrane damage (in words) ([5]; FIGS. 10A to 10C and Table 6)	Relative Fluorescence Intensity ([5]; 10 μM)	Relative Fluorescence Intensity ([5]; 25 μM)
eMTDΔ4-FAM: fluorescent tracer fluorescein labeled to the C-terminal of the peptide eMTDΔ4 (KLNFRQKLLNLISKLF-{FAM})	diffused into the cytosol through the cell membrane bubbles	consistent with the visualized positions of mitochondria	mitochondrial fragmentation was observed	–	–	–	–	–	–	–	–	–	–	–	–	–
MPGKKARKNAQPSPARAPAELEVECATQLRRFGDKLNFRQKLLNLISKLFCSGT (cysteines drawn unpaired) [fl-Noxa, reference compound]	–	–	–	101%	106%	–	–	–	–	–	–	–	–	–	–	–
KLNFRQKLLNLISKLFCSGT [eMTD]	–	–	–	61%	63%	100%	86%	78%	71%	68%	68%	67%	potent cell death activity	higher fluorescence intensity was detected	27%	55%
[Ca+2] [Ca, reference compound]	–	–	–	–	–	100%	77%	75%	73%	72%	70%	70%	–	–	–	–
